Consider eight molecules from paper PMC8398714, “Synthesis and Evaluation of Biological Activities of Bis(spiropyrazolone)cyclopropanes: A Potential Application against Leishmaniasis” (Molecules, 2021).

What is called melting point is the temperature of the solid-liquid transition. A word on the inhibition: it is how much of the control response was suppressed. For orientation: CC50 means the concentration that lowers cell viability or growth by half. A word on the IC50: it is the concentration needed to halve the response being measured.

One data set relates to RKO. Description: MTS cell viability assay on RKO cells. The data set is classed as cell-based. The settings on record: Homo sapiens, 100 µM, 48 h, Dox 1 µM, mean ± SEM, NA = no activity, read-out: Percentage (%) of inhibition, RKO. As for the experimental part: (§1) Five tumor human cancer cell lines—cerebral astrocytoma (D-384), grade IV prostatic adenocarcinoma (PC-3), mammary adenocarcinoma (MCF-7), human colon carcinoma (RKO) and lung carcinoma (A-549)—along with one immortalized hamster cell line (CHO K-1) were used. The cells PC-3, MCF-7 and RKO were cultured in RPMI-1640, D-384 on DMEM and CHO K-1 on HAM F-12 medium supplemented with 10% fetal bovine serum (FBS, Invitrogen, Karlsruhe, Germany), 1% antibiotic-antimitotic solution (100 units/mL penicillin G, 100 µg/mL streptomycin, and 0.25 µg/mL amphotericin B, Gibco, Grand Island, NY, USA), and 1% L-glutamine (2 mM, Gibco). The cells were incubated at 37 °C in a 5% CO2 atmosphere. The viable cells were counted using the trypan blue exclusion method in a hemocytometer.
(§2) The MTS (5-[3-(carboxymethoxy)phenyl]-3-(4,5-dimethyl-2-thiazolyl)-2-(4-sulfo- phenyl)-2H-tetrazolium inner salt) cell viability assay was used to assess the inhibitory effects of the extracts on the survival of human cancer cell lines. A total of 3–5 × 10^3 cells/well were seeded into 96-well plates and were allowed to adhere for 24 h. […] Each concentration/assay was performed three times. Dimethyl sulfoxide (DMSO) was used as a negative control at a final concentration of 0.1% v/v, and 1 µM Doxorubicin was used as a positive control. The cells were incubated with the treatments for 48 h, after which 20 µL MTS (5 mg/mL, Aqueous One Solution Reagent, Gibco) was added and further incubated for 4 h at 37 °C. The absorbance was measured at 570 nm. The data obtained with cells treated with DMSO were defined to represent 100% viability.
In general terms: Tetrazolium assays rely on reduction of a dye to a coloured formazan, in cell work by metabolically active cells.

A short description of data set [1]: Cytotoxicity, MTT assay on RAW 264.7 macrophages. Type of data set: cell-based. As to conditions: mouse. The procedure:
Raw 264.7 (ATCC® TIB-71™) was maintained in Dulbecco’s Modified Eagle Medium (DMEM) (Gibco, Invitrogen, Gibco, Carlsbad, CA, USA) supplemented with 10% fetal bovine serum (FBS) (Eurobio, Les Ulis, France) and 100 IU/mL penicillin + 100 μg/mL streptomycin (Gibco), at 37 °C in a 5% CO2 atmosphere. The medium was renewed once a week. The viability was determined using MTT (Thiazolyl Blue Tetrazolium Bromide) dye assay as described before for leishmanicidal activity assessment, with some variations. Here, 5 × 10^4 cells/well in a final volume of 100 µL were deposited into a 96-well plate, in triplicate. Saponin (2.4 mg/mL) and untreated cells were used as positive control and negative control, respectively. A stock solution was prepared in DMSO and immediately diluted in media to obtain different serial concentrations (100–0.01 µM). After 48 h exposure to the compounds, 10 µL/well of MTT (5 mg/mL MTT in PBS) were added, and the plate was incubated at 37 °C for 2 h in the dark. Cells were pelleted by centrifugation at 4400 rpm for 10 min and the media was removed. Then, 100 µL/well of DMSO were added and the absorbance at 570 nm was recorded; a reference wavelength of 630 nm was used for background subtraction.

A short description of data set [2]: DPPH radical scavenging assay. The settings on record: 30 min, 515 nm. As for the experimental part:
The stock solution of the compounds was prepared by dissolving 4 in dimethyl sulfoxide (DMSO) to a concentration of 4 mg/mL. The solution was diluted with methanol until a concentration of 400 µg/mL was obtained and then used immediately.
The experimental procedure was adapted from the literature. Briefly, 100 µL of a 0.2 mM methanol solution of DPPH (2, 2-diphenyl-1-picrylhydrazyl) radical were added to 100 µL of methanolic solutions of 4 prepared as serial two-fold dilutions from the stock solution in 96-well microfilter plates. Standards and edaravone were also prepared in the same concentrations. The mixture was incubated in dark at room temperature for 30 min and the absorbance was read at 515 nm on a Cytation 5 (BioTek) spectrophotometer.
The % DPPH scavenging activity was then calculated by using the following formula:(1) % DPPH scavenging = 100 × [(Asample+DPPH−Asample blank)/(ADPPH−Asolvent)]
The antioxidant activity of the compound was expressed as IC50, which is defined as the concentration that could scavenge 50% of the DPPH free radical. The IC50 values were calculated in GraphPad Prism 7.02 (GraphPad Software, Corp.) The results are given as a mean ± standard deviation (SD) of experiments done in triplicate.

The test system of a further data set is PC-3. Description: MTS cell viability assay on PC-3 cells. The data set is classed as cell-based. The settings on record: Homo sapiens, 100 µM, 48 h, Dox 1 µM, mean ± SEM, NA = no activity, read-out: Percentage (%) of inhibition, PC-3. The procedure: as §1, §2
Data set [3] has as its system promastigotes of Leishmania mexicana. Description: Leishmanicidal activity, MTT assay on promastigotes. The settings on record: for SI (Selectivity Index) = Citotoxic activity/Leishmanicidal activity: CC50 RAW / IC50 L. mexicana; for IC50: Leishmania mexicana. Type of data set: cell-based. The procedure: The leishmanicidal activity of all compounds was evaluated by measuring promastigotes’ mitochondrial activity using MTT colorimetric assay as described previously. In this study, promastigotes from Leishmania mexicana were used. The species were confirmed by amplifying and sequencing cytochrome b gene. Promastigotes were cultured at 25 °C in Schneider’s Drosophila Medium (Gibco, Invitrogen, Carlsbad, CA, USA) supplemented with 10% fetal bovine serum (Eurobio, Les Ulis, France). The medium was renewed every third day. Parasite density was determined by counting the cells using a Neubauer chamber.
Into each well of a 96-well plate were dispensed 1 × 10^6 parasites/well. A stock solution of the compounds was prepared in DMSO (Sigma Aldrich, Saint Louis, MO, USA), and serial dilutions were added to the parasite suspension, leading to concentrations ranging from 100 to 0.001 µM, keeping the solvent concentration at 0.5%. The final volume was 200 µL for each well and triplicate conditions were carried out. Amphotericin B (Gibco) treatment (1 µM) untreated parasites and DMSO 0.5% were used as positive and negative controls, respectively. After exposure to the compounds for 48 h in culture medium, 20 µL of a solution of 5 mg/mL MTT dissolved in PBS were added to each well. The plate was incubated at 25 °C for 2 h in darkness. The plate was then centrifuged at 4400 rpm for 10 min and the culture medium was then aspirated; 50 µL of DMSO were added into each well to solubilize the formazan crystals and the plate was shaken for 5 min and then it was measured by recording changes in absorbance at 570 nm using a microplate reader Cytation 5 (BioTek) spectrophotometer. A reference wavelength of 630 nm was used as background subtraction. Optical densities were analyzed because the quantity of formazan is directly proportional to the number of viable parasites. Data were analyzed with the statistical software GraphPad Prism 7.02 (GraphPad Software, Corp.).

Another data set relates to HeLa. Description: MTS cell viability assay on HeLa cells. The settings on record: Homo sapiens, 48 h, Dox 1 µM, mean ± SEM, NA = no activity, read-out: Percentage (%) of inhibition, HeLa. Type of data set: cell-based.
Another data set concerns CHO-K1. Description: MTS cell viability assay on immortalized CHO-K1 cells. Type of data set: cell-based, hamster. The settings on record: 48 h, Dox 1 µM, mean ± SEM, NA = no activity, read-out: Percentage (%) of inhibition, CHO-K1. As for the experimental part: as §1, §2
The next data set relates to MCF-7. Description: MTS cell viability assay on MCF-7 cells. Type of data set: cell-based. The settings on record: Homo sapiens, MCF7, 48 h, Dox 1 µM, mean ± SEM, NA = no activity, read-out: Percentage (%) of inhibition, MCF-7. The procedure:
as §1, §2

The next data set deals with A-549. Description: MTS cell viability assay on A-549 cells. The data set is classed as cell-based. The settings on record: Homo sapiens, A549; 100 µM, 48 h; Dox 1 µM; mean ± SEM; NA = no activity; read-out: Percentage (%) of inhibition, A-549. As for the experimental part:
as §1, §2

Data set [4] has as its system Leishmania mexicana cells. Description: Comet assay of Leishmania mexicana cells. The data set is classed as cell-based. Also noted: Comet tail length, mean (vary) / Comet tail length, median (Q50): unit not given here. As to conditions: L. mexicana, 24 h at MIC; MMS 0.011%; Kruskal-Wallis $means. The procedure: We quantified DNA breaks by a comet assay to determine if these compounds are genotoxic. Here, L. mexicana cells were exposed for 24 h to MIC concentrations previously determined (see Materials and Methods Section) for each compound. Figure 1 represents the measurements obtained for tail length. All compounds generated DNA breaks expect 4s. […] Samples with DMSO and MMS (0.011%) were included as controls. Some representative pictures are shown at Figure S4. The effect of 4p could not be determined because the cells appear to be very damaged. The data was subjected via a Kruskal–Wallis one-way ANOVA (Statistical Analyses S2). […] These observations support a mechanism of action through the generation of DNA damage.
For leishmania, a method previously described for yeast was adapted. Briefly, after incubating the cells in presence of the compounds for 24 h, cells were collected and washed with buffer S (1 M sorbitol, 25 mM KH2PO4 in ultrapure water and adjust to pH 6.5 with NaOH). The pellet was resuspended in 400 µL of 1.5% LMA and 40 µL was spread (second layer) onto previously agarose-coated slides (first layer).
Slides were immersed in cold lysis buffer (30 mM NaOH, 1 M NaCl, 0.05 % (w/v) lauroylsarcosine, 50 mM EDTA, and 10 mM Tris–HCl, pH 10) for 25 min and then in cold electrophoresis alkaline buffer (30 mM NaOH, 10 mM EDTA, and 10 mM Tris–HCl, pH 10). They were then subjected to electrophoresis at 26V and 300 mA. Slides were immersed in neutralization buffer (10 mM Tris–HCl, pH 7.4; prepared in advance and stored at 4 °C) for 10 min at room temperature. The cells were then treated with proteinase K (20 min, 37 °C in humid chamber), followed by a new neutralization step. To dehydrate the slides, they were immersed in EtOH 90% and EtOH absolute for 10 min each. Finally, the slides were stained with Sybr Gold 1X.
The DNA migration was analyzed using a LEICA microscope with fluorescence (40×) by scoring 100 cells per slide in duplicate. The tail moment parameter was then analyzed by the Comet Score software.

[5] abbreviates: RAW cells, 48 h, MTT, read-out: Cytotoxicity CC50.
[6] abbreviates: read-out: IC50 original values, x.1 (Mean).
The mark [7] stands for this setting: L. mexicana promastigotes, 48 h, MTT, read-out: Leishmanicidal Activity IC50.

SMILES strings stand for the structures. Like-named read-outs stand apart in the source and are kept apart here.

For `Cc1nn(-c2ccccc2)c(O)c1C(c1cc(O)ccc1[N+](=O)[O-])c1c(C)nn(-c2ccccc2)c1O`, the melting point was 205 to 207 °C (dec.).

`COC1C=C(C(c2c(C)nn(-c3ccccc3)c2O)c2c(C)nn(-c3ccccc3)c2O)C=CC1(O)OC` (stereo not drawn) yielded a melting point of 208 to 210 °C.

`CC1=NN(c2ccccc2)C(=O)C1=Cc1ccc(N(C)C)cc1` came in with a melting point of 190.7 to 193.2 °C.

In turn, `CC1=NN(c2ccccc2)C(=O)C12CC21C(=O)N(c2ccccc2)N=C1C` (stereo not drawn) displayed a melting point of 165.8 to 167.9 °C.

`CC1=NN(c2ccccc2)C(=O)[C@@]12C(c1ccc(F)cc1)[C@@]21C(=O)N(c2ccccc2)N=C1C` (relative stereo) [4p, (5R*,6R*)-11-(4-Fluorophenyl)-4,10-dimethyl-2,8-diphenyl-2,3,8,9-tetraazadispiro[4.0.4.1]undeca-3,9-diene-1,7-dione] gave a melting point of 128.9 to 129.9 °C. In addition, the inhibition at 100 µM with RKO is 18.6 ± 1.37%. Also, in [1] (setting [5]), the CC50 at 48 h came out at 3.5 ± 0.9 µM. Moreover, the CC50 at 48 h in data set [1] (Statistical Analyses S1, unrounded mean of CC50 in RAW cells, unit inferred, read-out: CC50 original values, x.1 (Mean)) came out at 3.55 µM. This molecule registered a half-maximal inhibitory concentration (IC50) in data set [2] greater than 300 µM. Further, in the data set on PC-3, the inhibition at 100 µM stood at 5.25 ± 2.6%. Further, the “SI (Selectivity Index) = Citotoxic activity/Leishmanicidal activity” value in data set [3] was found to be 6.1. The IC50 in data set [3] (setting [6]) was 0.575 µM. Further, the IC50 in data set [3] (setting [7]) was found to be 0.57 ± 0.23 µM. In addition, the inhibition at 100 µM in the data set with HeLa was 5.98 ± 2.19%. In addition, the inhibition at 100 µM in the data set on CHO-K1 is 1.95 ± 1.42%. In addition, the inhibition at 100 µM in the data set with MCF-7 is 13.6 ± 2.55%. Also, the inhibition at 100 µM in the data set on A-549 worked out at 9.08 ± 1.14%.

Take `C[C@@H]1[C@H](O)[C@@H](C)/C=C/C=C/C=C/C=C/C=C/C=C/C=C/[C@H](O[C@@H]2O[C@H](C)[C@@H](O)[C@H](N)[C@@H]2O)C[C@@H]2O[C@](O)(C[C@@H](O)C[C@@H](O)[C@H](O)CC[C@@H](O)C[C@@H](O)CC(=O)O[C@H]1C)C[C@H](O)[C@H]2C(=O)O` [Ampho B, Amphotericin B, reference compound]: the CC50 at 48 h in data set [1] (setting [5]) is greater than 5.4 µM. Also, the “SI (Selectivity Index) = Citotoxic activity/Leishmanicidal activity” value in data set [3] was greater than 31.8. The IC50 in data set [3] (setting [6]) came to 0.172 µM; in data set [3] (setting [7]), 0.17 ± 0.07 µM.

For the molecule `O=C1O[C@H]([C@@H](O)CO)C(O)=C1O` [Ascorbic acid, ascorbic acid, reference compound], in [2], the IC50 came out at 14 µM.

Take `COS(C)(=O)=O` [MMS, methyl methanesulfonate, reference compound]: in data set [4], the “Comet tail length, mean (vary)” value is 67050000 and the “Comet tail length, median (Q50)” value worked out at 65000000.
